PMC10180488, “Novel Derivatives of Eugenol as a New Class of PPARγ Agonists in Treating Inflammation: Design, Synthesis, SAR Analysis and In Vitro Anti-Inflammatory Activity” (Molecules, 2023)
“And” between values parts separate entries of the source, which are not always exact repeats. Equal values may be shown once.

Experiments:
human PPARγ- LBD = target: T1, human PPARγ- LBD (Homo sapiens, UniProt P37231); assay: Lanthascreen TR-FRET PPARγ competitive binding assay; conditions: for IC50: Lanthascreen TR-FRET competitive binding; for Raw Data / Raw Data - Background: TR-FRET
T1 construct: a mixture of a human PPARγ- LBD labelled with glutathione S-transferase (GST)
T1 sequence (P37231 238-503 limits assumed): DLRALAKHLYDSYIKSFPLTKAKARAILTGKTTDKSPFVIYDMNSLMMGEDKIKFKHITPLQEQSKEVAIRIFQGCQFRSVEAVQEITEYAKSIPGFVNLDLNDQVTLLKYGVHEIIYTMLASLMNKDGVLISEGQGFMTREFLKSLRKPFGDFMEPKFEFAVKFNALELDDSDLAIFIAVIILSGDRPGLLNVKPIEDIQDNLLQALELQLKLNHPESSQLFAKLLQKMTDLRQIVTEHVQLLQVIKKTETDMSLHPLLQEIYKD
Description: Using the Lanthasreen TR-FRET assay, the synthesized compounds were first preliminary tested for the PPARγ binding affinity. […] A chemical under test displaces the tracer from PPAR-LBD, which lowers the TR-FRET ratio and decreases the FRET signal Figure 8 [33].
A multimode low-volume proxy plate reader was used to read the plates after one hour of incubation. Then, a mixture of a human PPARγ- LBD labelled with glutathione S-transferase (GST), a fluorescent small pan-PPAR ligand (FluormoneTM Pan-PPAR Green), and terbium-labeled anti-GST antibody was added.

[1] = tested on: human red blood cells (HRBC); assay: HRBC membrane stabilization method; conditions: for HRBC membrane stabilization (percentage protection against HRBC lysis): mean ± SD (n = 3); for IC50: Homo sapiens, Erythrocyte, read-out: IC50 Values, HRBC membrane stabilization method
Description: The principle of this procedure is to stabilize the membrane of human red blood cells by hypotonic membrane lysis. […] Lysosomal enzyme levels typically decrease as the HRBC membrane is stabilized.
The packed cells in this blood solution were separated after centrifugation at 3000 rpm [41]. The packed cells were cleaned using an isosaline solution, and then, isosaline was used to prepare a 10% v/v suspension. This HRBC suspension was employed to estimate its anti-inflammatory properties. Different concentrations of the synthesized compounds and the reference standard were each combined with 1 mL of phosphate buffer (pH 7.4), 2 mL of hyposaline, and 0.5 mL of HRBC solution. A total of 2.0 mL of distilled water was utilized as the control. The assay mixtures were all centrifuged at 3000 rpm after 30 min of incubation at 37°C. The following formula was used to determine the percentage of stabilized HRBC membranes. Percentage protection= 100 − (OD sample/OD control) × 100

egg albumin = egg albumin (Gallus gallus, UniProt P01012); assay: Albumin denaturation assay; assay type: biochemical, hen; conditions: mean ± SD (n = 3), read-out: Percentage inhibition of denaturation of albumin
Sequence of egg albumin (P01012 2-386): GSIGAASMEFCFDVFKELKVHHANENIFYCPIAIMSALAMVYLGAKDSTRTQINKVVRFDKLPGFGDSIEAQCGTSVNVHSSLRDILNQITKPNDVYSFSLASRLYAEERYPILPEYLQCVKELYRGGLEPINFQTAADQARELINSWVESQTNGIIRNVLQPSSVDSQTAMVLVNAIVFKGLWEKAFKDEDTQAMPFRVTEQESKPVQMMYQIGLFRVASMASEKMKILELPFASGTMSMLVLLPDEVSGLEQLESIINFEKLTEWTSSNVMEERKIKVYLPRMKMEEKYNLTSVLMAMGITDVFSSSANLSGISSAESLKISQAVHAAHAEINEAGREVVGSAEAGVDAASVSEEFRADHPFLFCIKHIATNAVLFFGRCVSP
Description: Inflammation is accompanied by protein denaturation. Tissue protein denaturation is a well-established cause of Inflammatory illnesses. Inflammatory disorders including rheumatoid arthritis, diabetes, and cancer have been linked to the denaturation of proteins. The ability of a substance to stop proteins from becoming denaturized has a role in the prevention of inflammatory disorders. […] Denaturation of proteins is accomplished by keeping the reaction mixture in a water bath at 70 °C for […].
Minor modifications were made to Mizushima and Kobayashi’s and Sakat et al. methodologies. The reaction mixture containing 0.2 mL of egg albumin (from a fresh hen’s egg) is mixed with 2.8 mL of phosphate-buffered saline (PBS, pH 6.4) and 2 mL of synthesized compounds in varying concentrations. The mixture was then heated at 70 °C for 5 min after being incubated at 37 °C for approximately 15–20 min. After cooling, their absorbance was measured at 660 nm spectrometrically. Three duplicates of the experiment were carried out. […] Percentage inhibition = (OD control − OD sample/OD control) × 100

Compound | IC50 (human PPARγ- LBD) | Raw Data (human PPARγ- LBD; 0.0000512 µM) | Raw Data - Background (human PPARγ- LBD; 0.0000512 µM) | Raw Data (human PPARγ- LBD; 0.000256 µM) | Raw Data - Background (human PPARγ- LBD; 0.000256 µM) | Raw Data (human PPARγ- LBD; 0.00128 µM) | Raw Data - Background (human PPARγ- LBD; 0.00128 µM) | Raw Data (human PPARγ- LBD; 0.0064 µM) | Raw Data - Background (human PPARγ- LBD; 0.0064 µM) | Raw Data (human PPARγ- LBD; 0.032 µM) | Raw Data - Background (human PPARγ- LBD; 0.032 µM) | Raw Data (human PPARγ- LBD; 0.16 µM) | Raw Data - Background (human PPARγ- LBD; 0.16 µM) | Raw Data (human PPARγ- LBD; 0.8 µM) | Raw Data - Background (human PPARγ- LBD; 0.8 µM) | Raw Data (human PPARγ- LBD; 4 µM) | Raw Data - Background (human PPARγ- LBD; 4 µM) | Raw Data (human PPARγ- LBD; 20 µM) | Raw Data - Background (human PPARγ- LBD; 20 µM) | Raw Data (human PPARγ- LBD; 100 µM) | other results
C=CCc1ccc(OCC(=O)Nc2ccccc2C)c(OC)c1 [Compound 1c, 2-(4-Allyl-2-methoxyphenoxy)-N-(o-tolyl)acetamide] | 8.2 µM | 1.881 RLU | 1.647 RLU | 1.88 RLU | 1.646 RLU | 1.88 RLU | 1.637 RLU | 1.886 RLU | 1.651 RLU | 1.902 RLU | 1.657 RLU | 1.994 RLU | 1.76 RLU | 1.991 RLU | 1.756 RLU | 1.33 RLU | 1.096 RLU | 0.1617 RLU | 0.02704 RLU | 0.06866 RLU | Raw Data - Background (human PPARγ- LBD; 100 µM): -0.146 RLU; HRBC membrane stabilization (percentage protection against HRBC lysis) ([1]; 6.25 µM): 6.21 ± 0.38%; HRBC membrane stabilization (percentage protection against HRBC lysis) ([1]; 12.5 µM): 14.26 ± 0.38%; HRBC membrane stabilization (percentage protection against HRBC lysis) ([1]; 25 µM): 24.78 ± 0.38%; HRBC membrane stabilization (percentage protection against HRBC lysis) ([1]; 50 µM): 29.08 ± 0.46%; HRBC membrane stabilization (percentage protection against HRBC lysis) ([1]; 100 µM): 40.65 ± 0.28%; HRBC membrane stabilization (percentage protection against HRBC lysis) ([1]; 200 µM): 50.92 ± 0.48%; HRBC membrane stabilization (percentage protection against HRBC lysis) ([1]; 400 µM): 62.54% and 62.54 ± 0.36%; IC50 [1]: 79.7 µM; inhibition at 6.25 µM (egg albumin): 1.77 ± 0.37%; inhibition at 12.5 µM (egg albumin): 5.32 ± 0.37%; inhibition at 25 µM (egg albumin): 8.42 ± 0.24%; inhibition at 50 µM (egg albumin): 13.8 ± 0.43%; inhibition at 100 µM (egg albumin): 19.2 ± 0.24%; inhibition at 200 µM (egg albumin): 27.26 ± 0.24%; inhibition at 400 µM (egg albumin): 34.03 ± 0.31%
C=CCc1ccc(OCC(=O)Nc2ccc([N+](=O)[O-])cc2)c(OC)c1 [Compound 1b, 2-(4-Allyl-2-methoxyphenoxy)-N-(4-nitrophenyl)acetamide] | 42.4 µM | 2.014 RLU | 1.767 RLU | 1.849 RLU | 1.755 RLU | 1.865 RLU | 1.732 RLU | 1.857 RLU | 1.671 RLU | 1.859 RLU | 1.568 RLU | 1.896 RLU | 1.724 RLU | 2.012 RLU | 1.756 RLU | 1.779 RLU | 1.596 RLU | 1.199 RLU | 1.025 RLU | 0.421 RLU | Raw Data - Background (human PPARγ- LBD; 100 µM): 0.2685 RLU; HRBC membrane stabilization (percentage protection against HRBC lysis) ([1]; 6.25 µM): 3.19 ± 0.28%; HRBC membrane stabilization (percentage protection against HRBC lysis) ([1]; 12.5 µM): 9.10 ± 0.28%; HRBC membrane stabilization (percentage protection against HRBC lysis) ([1]; 25 µM): 15.55 ± 0.28%; HRBC membrane stabilization (percentage protection against HRBC lysis) ([1]; 50 µM): 27.49 ± 0.36%; HRBC membrane stabilization (percentage protection against HRBC lysis) ([1]; 100 µM): 36.16 ± 0.48%; HRBC membrane stabilization (percentage protection against HRBC lysis) ([1]; 200 µM): 45.07 ± 0.28%; HRBC membrane stabilization (percentage protection against HRBC lysis) ([1]; 400 µM): 58.36 ± 0.28%; IC50 [1]: 83.2 µM; inhibition at 6.25 µM (egg albumin): 2.06 ± 0.17%; inhibition at 12.5 µM (egg albumin): 4.44 ± 0.36%; inhibition at 25 µM (egg albumin): 8.42 ± 0.24%; inhibition at 50 µM (egg albumin): 13.4 ± 0.24%; inhibition at 100 µM (egg albumin): 17.6 ± 0.18%; inhibition at 200 µM (egg albumin): 21.2 ± 0.3%; inhibition at 400 µM (egg albumin): 32.2 ± 0.4%
